Experimental findings from patent US8906925B2, “Pyrido[4,3-B]indoles containing rigid moieties” (Medivation Technologies, Inc., priority 2008, dated 2014) are described below.

Read-outs that look alike come from different tables or passages of the source.

In assay [1] the target is histamine receptor H1 (Homo sapiens, UniProt P35367). As to the kind of experiment: Histamine H1 radioligand binding ([3H]Pyrilamine). The settings on record: read-out: Histamine Binding (1 μM) H1, percent inhibition of specific binding, 1 μM. In short, it runs like this:
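Values are percent inhibition of specific [3H]pyrilamine (1.2 nM) binding with compounds at ≤1 μM (1% DMSO vehicle); 180 min incubation at 25 °C, pH 7.4 Tris buffer, on CHO-expressed human H1 receptor; 1 μM pyrilamine defined nonspecific binding, bound ligand counted after filtration.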

For assay [2], the target named is T1, human recombinant adrenergic α1D receptor (Homo sapiens, UniProt P25100).
T1 construct: expressed in transfected cells; host or cells: human embryonic kidney (HEK-293) cells
T1 sequence (P25100 1-572): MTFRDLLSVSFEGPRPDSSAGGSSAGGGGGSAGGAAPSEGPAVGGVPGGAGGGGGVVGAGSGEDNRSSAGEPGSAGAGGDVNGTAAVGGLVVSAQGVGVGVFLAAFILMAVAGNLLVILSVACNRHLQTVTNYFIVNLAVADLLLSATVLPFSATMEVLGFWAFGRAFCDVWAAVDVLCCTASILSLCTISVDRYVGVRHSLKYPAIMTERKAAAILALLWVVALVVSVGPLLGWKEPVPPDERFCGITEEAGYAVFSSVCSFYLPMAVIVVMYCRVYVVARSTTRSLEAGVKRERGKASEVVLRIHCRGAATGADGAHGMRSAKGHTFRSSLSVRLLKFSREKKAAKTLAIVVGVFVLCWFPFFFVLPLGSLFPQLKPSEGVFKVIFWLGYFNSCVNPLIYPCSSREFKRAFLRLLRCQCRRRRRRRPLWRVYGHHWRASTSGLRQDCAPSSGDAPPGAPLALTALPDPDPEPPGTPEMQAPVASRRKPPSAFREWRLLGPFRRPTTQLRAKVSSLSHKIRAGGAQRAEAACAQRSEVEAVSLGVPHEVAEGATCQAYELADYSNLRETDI
As to the kind of experiment: Adrenergic α1D radioligand binding ([3H]Prozosin). The settings on record: compound at 1 μM. How it is done: Compounds of invention were incubated with 0.6 nM [^3H]Prozosin for 60 min. at 25° C. Non-specific binding was estimated in the presence of 10 μM phentolamine. Receptor proteins were filtered and washed, the filters were then counted to determine [^3H]Prozosin specifically bound. Compounds were screened at 1 μM or lower, using 1% DMSO as vehicle. Biochemical assay results are presented as the percent inhibition of specific binding in Table 9.

Assay [3] addresses human dopamine D2L receptor (Homo sapiens, UniProt P14416). As to the kind of experiment: Dopamine D2L radioligand binding ([3H]Spiperone). The settings on record: compound at 1 μM. From the text: Non-specific binding was estimated in the presence of […] Haloperidol. Receptor proteins were filtered and washed, the filters were then counted to determine [^3H]Spiperone specifically bound. […] Biochemical assay results are presented as the percent inhibition of specific binding in Table 9.

Assay [4] addresses T2, human recombinant serotonin (5-Hydroxytryptamine) 5-HT2A receptor (Homo sapiens, UniProt P28223).
T2 construct: expressed in transfected cells; host or cells: Chinese hamster ovary (CHO-K1) cells
As to the kind of experiment: Serotonin 5-HT2A radioligand binding ([3H]Ketanserin). The conditions noted are these: read-out: Inhibition of ligand binding, Serotonin 5-HT2A (percent inhibition of specific binding), compound at 1 μM. The method, then:
Compounds of the invention were incubated with 0.5 nM [^3H]Ketanserin for 60 min. at 25° C. Non-specific binding was estimated in the presence of 1 μM Mianserin. Receptor proteins were filtered and washed, the filters were then counted to determine [^3H]Ketanserin specifically bound.

In assay [5] the target is T3, human recombinant serotonin (5-Hydroxytryptamine) 5-HT2C receptor (Homo sapiens, UniProt P28335).
T3 construct: expressed in transfected cells; host or cells: Chinese hamster ovary (CHO-K1) cells
T3 sequence (P28335 33-458): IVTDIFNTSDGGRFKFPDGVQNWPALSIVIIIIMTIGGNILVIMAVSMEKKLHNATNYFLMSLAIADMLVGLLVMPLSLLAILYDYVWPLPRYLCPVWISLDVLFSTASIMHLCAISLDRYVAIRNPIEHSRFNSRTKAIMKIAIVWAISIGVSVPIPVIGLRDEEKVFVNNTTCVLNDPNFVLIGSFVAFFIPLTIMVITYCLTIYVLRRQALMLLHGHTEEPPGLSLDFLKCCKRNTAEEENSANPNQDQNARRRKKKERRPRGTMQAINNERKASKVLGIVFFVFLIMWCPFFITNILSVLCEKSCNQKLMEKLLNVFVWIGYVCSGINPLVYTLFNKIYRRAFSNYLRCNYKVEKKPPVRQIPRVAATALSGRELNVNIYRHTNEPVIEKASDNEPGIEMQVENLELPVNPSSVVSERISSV
Kind of assay: Serotonin 5-HT2C radioligand binding ([3H]Mesulergine). The settings on record: compound at 1 μM; read-out: Inhibition of ligand binding, Serotonin 5-HT2C (percent inhibition of specific binding). In short, it runs like this:
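Compounds tested at 1 μM or lower (1% DMSO vehicle) for displacement of 1 nM [3H]Mesulergine over 60 min at 25° C. Specific binding determined by filtration counting, with 1 μM Mianserin defining non-specific binding; values are percent inhibition.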

[6] abbreviates: percent inhibition of specific binding, read-out: Inhibition of ligand binding, Adrenergic α1D.
Where [7] appears, read: percent inhibition of specific binding, read-out: Inhibition of ligand binding, Dopamine D2L.
Setting [8] is: read-out: Inhibition of ligand binding, Adrenergic α1D (percent inhibition of specific binding).
Where [9] appears, read: […] [3H]Spiperone, read-out: Inhibition of ligand binding, Dopamine D2L (percent inhibition of specific binding).

human dopamine D2L receptor, sequence (P14416 whole entry): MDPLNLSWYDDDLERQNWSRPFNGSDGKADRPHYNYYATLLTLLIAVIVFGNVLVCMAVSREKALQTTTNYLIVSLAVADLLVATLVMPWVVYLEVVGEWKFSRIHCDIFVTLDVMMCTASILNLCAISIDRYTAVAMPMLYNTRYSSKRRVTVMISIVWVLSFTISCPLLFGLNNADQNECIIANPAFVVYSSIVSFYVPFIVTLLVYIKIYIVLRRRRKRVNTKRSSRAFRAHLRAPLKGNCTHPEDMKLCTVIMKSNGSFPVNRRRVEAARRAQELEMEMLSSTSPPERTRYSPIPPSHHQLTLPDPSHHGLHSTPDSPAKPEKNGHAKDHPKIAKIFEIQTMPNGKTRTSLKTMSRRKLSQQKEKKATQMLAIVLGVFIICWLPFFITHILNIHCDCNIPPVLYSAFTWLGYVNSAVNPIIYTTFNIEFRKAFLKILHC
histamine receptor H1, sequence (P35367 whole entry): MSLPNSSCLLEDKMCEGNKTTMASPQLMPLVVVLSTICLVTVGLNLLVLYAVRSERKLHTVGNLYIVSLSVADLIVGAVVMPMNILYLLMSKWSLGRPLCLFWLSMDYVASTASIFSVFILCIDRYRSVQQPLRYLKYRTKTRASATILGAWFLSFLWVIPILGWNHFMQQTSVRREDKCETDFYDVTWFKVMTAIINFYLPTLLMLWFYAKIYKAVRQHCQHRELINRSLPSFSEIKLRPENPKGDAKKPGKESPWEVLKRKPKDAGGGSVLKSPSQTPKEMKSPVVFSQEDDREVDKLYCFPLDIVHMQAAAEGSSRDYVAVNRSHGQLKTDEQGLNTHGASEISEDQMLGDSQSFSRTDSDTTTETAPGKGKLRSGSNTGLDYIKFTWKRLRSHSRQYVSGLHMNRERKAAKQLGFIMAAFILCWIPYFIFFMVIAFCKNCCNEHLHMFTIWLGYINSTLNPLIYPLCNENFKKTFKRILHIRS
T2 sequence (P28223 whole entry): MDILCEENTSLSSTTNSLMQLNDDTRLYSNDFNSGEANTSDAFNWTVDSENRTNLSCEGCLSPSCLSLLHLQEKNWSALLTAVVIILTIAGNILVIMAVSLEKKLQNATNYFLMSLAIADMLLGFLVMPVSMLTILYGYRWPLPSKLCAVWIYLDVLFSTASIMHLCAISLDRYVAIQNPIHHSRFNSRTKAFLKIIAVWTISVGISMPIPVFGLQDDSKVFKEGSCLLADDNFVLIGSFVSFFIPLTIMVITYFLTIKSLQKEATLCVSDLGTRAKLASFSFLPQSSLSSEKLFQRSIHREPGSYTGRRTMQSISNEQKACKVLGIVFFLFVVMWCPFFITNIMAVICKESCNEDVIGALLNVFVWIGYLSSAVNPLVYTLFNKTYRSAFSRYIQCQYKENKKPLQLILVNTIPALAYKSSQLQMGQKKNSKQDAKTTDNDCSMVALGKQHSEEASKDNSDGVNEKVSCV

As a reminder, the inhibition is the drop in the measured response relative to a control, in per cent. With `CN1CCc2c(c3cc(Cl)ccc3n2CC(C)(O)c2cccnc2)C1` (stereo not drawn) [Compound 61, 1-(8-chloro-1,2,3,4-tetrahydro-2-methylpyrido[4,3-b]indol-5-yl)-2-(pyridin-3-yl)propan-2-ol], the inhibition at 1 µM in assay [1] amounted to 52%; in assay [2] (setting [6]), 87%; in assay [3] (setting [7]) it was 19%; in assay [4] it was 77%; in assay [5], 90%.

As to `CNC(=O)c1ccc2c(c1)c1c(n2C#Cc2ccc(F)cc2)CCN(C)C1` [Compound No. 483, 5-((4-fluorophenyl)ethynyl)-N,2-dimethyl-2,3,4,5-tetrahydro-1H-pyrido[4,3-b]indole-8-carboxamide], the inhibition at 1 µM in assay [1] is -1%; in assay [2] (setting [8]), 59%; in assay [3] (setting [9]), 37%; in assay [4] it was 34%; in assay [5], 35%.

`COc1ccc(/C(C)=C/n2c3c(c4cc(Cl)ccc42)CN(C)CC3)cc1F` [Compound 93, (E)-8-chloro-5-(2-(3-fluoro-4-methoxyphenyl)prop-1-enyl)-2,3,4,5-tetrahydro-2-methyl-1H-pyrido[4,3-b]indole]: the inhibition at 1 µM in assay [1] came out at 39%; in assay [2] (setting [6]) it was 96%; in assay [3] (setting [7]), 85%; in assay [4], 100%; in assay [5] it was 99%. The “Inhibition of ligand binding, Dopamine D2L” value in assay [3] (percent inhibition of specific binding, 1 µM) amounted to 97%.

Consider `Cc1ccc2c(c1)c1c(n2C#Cc2ccc(F)cc2)CCN(C)C1` [Compound No. 478, 5-((4-fluorophenyl)ethynyl)-2,8-dimethyl-2,3,4,5-tetrahydro-1H-pyrido[4,3-b]indole], for which the inhibition at 1 µM in assay [1] stood at 28%; in assay [2] (setting [8]), 92%; in assay [3] (setting [9]), 89%; in assay [4], 99%; in assay [5], 110%.
